Results from PubChem BioAssay AID463206 (Broad Institute, 2010).
The source made the active and inactive calls.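 Rule for the calls: active = caspase luminescence falls with dose and the half-maximal concentration AC50 from the fitted curve is at or below a set limit; inconclusive = flat fit at 30 to 70% signal loss, or invalid fit; inactive = AC50 above the limit, or signal rises instead.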

Test system: INS-1E cytokine-induced caspase-3/7, Caspase-Glo luminescence, 48 h
Test: suppression of cytokine-driven beta-cell apoptosis – INS-1E rat cells, luminescence, orthogonal assay for beta-cell apoptosis protection project, dose response (AID 463206)

Row | SMILES | AC50
1 | Cn1nc(C(C)(C)C)cc1C(=O)NCc1cc(F)cc2c1OCOC2 | > 26 µM (inactive)
2 | Cc1ccc(NC(=O)NCC2CCN(Cc3cccc(Cl)c3)CC2)cc1Cl | > 26 µM (inactive)
3 | Cc1cc(/C=N/n2cnnc2)c(C)n1-c1ccc(OCc2ccc(Cl)cc2)cc1 | > 26 µM (inactive)
4 | CCN(CC)S(=O)(=O)c1cc([N+](=O)[O-])ccc1NNC(=O)Nc1ccc(Cl)c(Cl)c1 | > 26 µM (inactive)
5 | Cc1cc(-c2ccccc2)n(-c2cc(N/N=C/c3ccccc3O)ncn2)n1 | > 26 µM (inactive)
6 | Cc1ccc(N=Nc2c(O)ccc3n[nH]nc23)cc1 | > 26 µM (inactive)
7 | Cc1ccc(NC(=O)c2cc(S(=O)(=O)NCCC3=CCCCC3)ccc2F)cc1F | > 26 µM (inactive)
8 | O=C(c1ccc(Cl)cc1)C(CN1CCCCC1)c1ccccc1 (stereo not given) | > 26 µM (inactive)
9 | COc1ccc(C(=O)NCC(=O)N/N=C/c2ccc([N+](=O)[O-])s2)cc1OC | > 26 µM (inactive)
10 | CC1=NNC(=O)/C1=C\c1cn(-c2ccccc2)nc1-c1ccccc1 | > 26 µM (inactive)
11 | O=C(Nc1nc2ccccc2s1)c1cc(-c2ccccc2)nn1-c1ccccc1 | > 26 µM (inactive)
12 | Cc1cc(N2CCOCC2)n2ncc(-c3ccccc3)c2n1 | > 26 µM (inactive)
13 | Cc1ccc(-c2nn(-c3ccccc3)cc2/C=N/NC(=O)c2ccc(Br)o2)cc1 | > 26 µM (inactive)
14 | COc1c(CC=C(C)C)cc(C2CC(=O)c3c(O)cc(O)cc3O2)cc1CC=C(C)C (stereo not given) | > 26 µM (inactive)
15 | CCCOCc1ccc(O)c2ncccc12 | > 26 µM (inactive)
16 | CC1CCN(Cc2c(C(=O)N/N=C/c3ccccc3O)nnn2-c2nonc2N)CC1 | > 26 µM (inactive)
17 | Cn1nnnc1N=N/C(=N/Nc1ccccc1)c1ccccc1 | > 12 µM (inactive)
18 | COc1ccc(C(C(=O)NC2CCCCC2)N(C(=O)CCl)c2cccc(Cl)c2)cc1 (stereo not given) | > 26 µM (inactive)
19 | O=C(Oc1c(Cl)cc(Cl)c2cccnc12)c1cccs1 | > 12 µM (inactive)
20 | CC1CCc2c(sc3nc(C(C)(C)C)nc(N4CCN(C(=O)CCl)CC4)c23)C1 (stereo not given) | > 26 µM (inactive)
21 | COc1ccc(C2CC(c3cccc(C)c3)n3nc(N)nc3N2)cc1 (stereo not given) | > 26 µM (inactive)
22 | Cc1ccc(S(=O)(=O)Nc2ccc(NC(=O)Nc3cccc(C(F)(F)F)c3)cc2)cc1 | > 26 µM (inactive)
23 | COc1cccc(N2CCN(c3ncnc4c3[nH]c3ccc(F)cc34)CC2C)c1 (stereo not given) | > 26 µM (inactive)
24 | COCCC1CCCCN1C(=O)c1cc(COc2ccc(-n3cncn3)cc2)on1 (stereo not given) | > 26 µM (inactive)

Row | SMILES | AC50
25 | CCOc1ccc(-n2c(-c3ccccc3)c[n+]3c2CCC3)cc1 | > 26 µM (inactive)
26 | Nc1nc(-c2ccccn2)nc(N)c1Cc1ccc(Cl)cc1Cl | > 26 µM (inactive)
27 | CC(=O)NC(c1ccccc1)c1cc(Cl)c2cccnc2c1O (stereo not given) | > 26 µM (inactive)
28 | O=C(Nc1ccc(Cl)cc1)c1nc[nH]c1C(=O)NCCN(CCNC(=O)c1[nH]cnc1C(=O)Nc1ccc(Cl)cc1)CCNC(=O)c1[nH]cnc1C(=O)Nc1ccc(Cl)cc1 | > 26 µM (inactive)
29 | CCC(Sc1nc(C)cc(C)n1)C(=O)NC1=NN=C(c2ccc(C)cc2)CS1 (stereo not given) | > 26 µM (inactive)
30 | COc1ccc2c(c1OC)C(=O)OC2Nc1nc(-c2ccccc2)cs1 (stereo not given) | 16.1 µM
31 | COc1ccc(CCNc2c3ccccc3nc3ccccc23)cc1OC | 4.3 µM
32 | Cc1cc2nc(-c3ccc[nH]c3=O)[nH]c2cc1C | > 26 µM (inactive)
33 | C=CCn1nc([N+](=O)[O-])nc1Sc1cccc2cccnc12 | > 26 µM (inactive)
34 | COc1ccc(O)c(/C=N/NC(=O)c2ccc(OCc3cccc(Br)c3)cc2)c1 | > 26 µM (inactive)
35 | CC(=O)c1ccc(N2CCN(S(=O)(=O)c3ccc4c(c3)CC(C)N4C(C)=O)CC2)cc1 (stereo not given) | > 26 µM (inactive)
36 | CCCCCn1c(=O)c(C(=O)NCc2ccccc2Cl)c(O)c2ccccc21 | > 26 µM (inactive)
37 | N/C(=N\OC(=O)c1ccc(Cl)cc1Cl)c1ccccn1 | > 26 µM (inactive)
38 | COc1cc(-c2nc3ccc(C)cn3c2NCc2ccccc2)ccc1SC1CCCCC1 | > 26 µM (inactive)
39 | COc1ccccc1NCC(=O)N/N=C/c1c(O)ccc2ccccc12 | > 26 µM (inactive)
40 | CN1/C(=C\C(=O)C[n+]2ccc(C(=O)c3ccccc3)cc2)C(C)(C)c2ccccc21 | > 26 µM (inactive)
41 | CC(C)(C)c1cc[n+](C2=C([O-])c3ccccc3C(=O)/C2=N\S(=O)(=O)c2cccs2)cc1 | > 26 µM (inactive)
42 | CCOc1ccc(S(=O)(=O)NCc2ccncc2)cc1 | > 26 µM (inactive)
43 | CN(/N=C/c1cc(Br)cc(Br)c1O)c1cccc(C(F)(F)F)n1 | > 12 µM (inactive)
44 | COC(=O)c1cc(=O)n(CCc2ccccc2F)c(=Nc2ccc(F)c(Cl)c2)s1 | > 26 µM (inactive)
45 | C=CCc1cccc(/C=N/NC(=O)CCC(=O)Nc2ccc(F)cc2)c1O | > 26 µM (inactive)
46 | Cc1cnc(NC(=O)CN2CCN(c3ccccn3)CC2)s1 | > 26 µM (inactive)
47 | Cc1cccc(NC(=O)Cn2c(/C=C/c3ccccc3)nc3ccccc32)c1 | > 26 µM (inactive)
48 | CN1/C(=C\C(=O)C[n+]2cccc(Br)c2)C(C)(C)c2ccccc21 | > 26 µM (inactive)

Row | SMILES | AC50
49 | O=C(Nc1ccc(Cl)cc1)Nc1nnc(-c2ccncc2)s1 | > 26 µM (inactive)
50 | O=C(N/N=C/c1ccccc1O)/C(=C/c1ccccc1)CCO | > 26 µM (inactive)
51 | CC[C@@H]1C/C=C\Cc2ccccc2[C@H](C(=O)C[C@@H](O)CC(C)=O)OC1=O | > 26 µM (inactive)
52 | O=C(N/N=C/c1cc(Cl)ccc1O)c1ccc(Br)cc1 | > 26 µM (inactive)
53 | O=C(CN1CC[n+]2c(-c3cccs3)csc21)c1ccc(-c2ccccc2)cc1 | > 26 µM (inactive)
54 | c1ccc(CNc2nc(-c3ccccn3)nc3ccccc23)cc1 | > 26 µM (inactive)
55 | CCCCNC1=CC(=O)C(=O)c2ccccc21 | > 26 µM (inactive)
56 | CCCCCc1cc(=O)oc2c(C(CCN(CC)CC)c3ccc(OC)cc3)c(OC)cc(OC)c12 (stereo not given) | 23.2 µM
57 | O=C(NCC1COc2ccccc2O1)c1cccc(S(=O)(=O)NCc2ccccc2)c1 (stereo not given) | > 12 µM (inactive)
58 | Cn1cc(CNCc2ccc(OC(F)(F)F)cc2)c(-c2ccc3c(c2)OCCO3)n1 | > 26 µM (inactive)
59 | O=C(NCCCn1ccnc1)c1ccc(-c2ccccc2)cc1 | > 26 µM (inactive)
60 | CC(C)(C)c1cc(C=C(C#N)C#N)cc(C(C)(C)C)c1O | > 26 µM (inactive)
61 | Cc1ccc(NC(=O)C2=C(c3ccccc3)S(=O)(=O)CCS2(=O)=O)cc1 | > 26 µM (inactive)
62 | O=S(=O)(NCc1ccncc1)c1ccc(Br)s1 | > 26 µM (inactive)
63 | Cc1ccc(NC(=O)CCC(=O)N/N=C/c2ccc([N+](=O)[O-])o2)cc1C | > 26 µM (inactive)
64 | COc1ccccc1NC(=O)CN(c1ccc(C23CC4CC(CC(C4)C2)C3)cc1)S(C)(=O)=O | > 26 µM (inactive)
65 | COc1ccc(O)c(/C=N/NC(=O)c2cccc(N3CCCC3=O)c2)c1 | > 26 µM (inactive)
66 | CCN(CC)c1ccc(/C=N/NC(=O)c2ccoc2C)c(O)c1 | > 26 µM (inactive)
67 | NC1=NC[C@H](Cc2ccc(O)cc2)N1CCCCC1CCCCC1 | > 26 µM (inactive)
68 | COc1ccc(CNc2ncnc3sccc23)cc1 | > 26 µM (inactive)
69 | O=S(=O)(c1cc(F)ccc1F)N1CCN(c2ncnc3ccccc23)CC1 | > 26 µM (inactive)
70 | N#Cc1c(Nc2ccccc2)sc(C(=O)c2ccc(F)cc2)c1N | > 26 µM (inactive)
71 | Cc1ccc(Cn2c(=N)n(CC(=O)c3ccccc3)c3ccccc32)cc1 | > 26 µM (inactive)
72 | COc1ccc2cc1Oc1ccc(cc1)C[C@H]1c3c(cc(OC)c4c3Oc3c(ccc5c3[C@H](C2)N(C)CC5)O4)CCN1C | > 26 µM (inactive)

Row | SMILES | AC50
73 | COc1ccc(Nc2ccc3c(c2)=NC2(CCCCC2)[N+]=3[O-])cc1 | > 26 µM (inactive)
74 | Cc1ccc(-c2cc(-c3ccc(C)cc3)[n+](-c3ccc(C(=O)[O-])cc3)c(-c3ccc(C)cc3)c2)cc1 | > 26 µM (inactive)
75 | Cc1ccc(C(C)C)c(OCC(O)CN2CCc3ccccc3C2)c1 (stereo not given) | > 12 µM (inactive)
76 | Cc1cc(C)c2c(C)[nH]nc2n1 | > 26 µM (inactive)
77 | COc1ccccc1/C=N\Nc1cc(C)nc(-n2nc(C)cc2C)n1 | > 26 µM (inactive)
78 | CC(C)CC[n+]1ccn(C2=C([O-])c3ccccc3C(=O)/C2=N\S(=O)(=O)c2ccccc2)c1 | > 26 µM (inactive)
79 | O=C(Nc1nc2ccc(F)cc2s1)c1ccccn1 | > 26 µM (inactive)
80 | Cn1cccc1/C=N/NC(=O)Cc1cccs1 | > 26 µM (inactive)
81 | O=c1cnnc(N/N=C/c2ccccn2)[nH]1 | > 26 µM (inactive)
82 | Cc1cc(C(=O)N/N=C/c2cc(N=Nc3ccccc3)ccc2O)n[nH]1 | > 26 µM (inactive)
83 | Cc1ccc(C)c(S(=O)(=O)N2CCN(c3ncnc4sccc34)CC2)c1 | > 26 µM (inactive)
84 | CCOC(=O)c1sc(NC(=O)c2c(C)nn(Cc3ccccc3)c2C)cc1C | > 26 µM (inactive)
85 | CC(=O)Nc1ccc(S(=O)(=O)NC2=C(N3CCN(c4ccc(F)cc4)CC3)C(=O)c3ccccc3C2=O)cc1 | > 26 µM (inactive)
86 | O=C(c1ccco1)N1N=C(c2ccc(Br)cc2)CC1c1ccco1 (stereo not given) | > 26 µM (inactive)
87 | c1ccc(-c2cc(-c3ccccc3)[n+](-c3ccccc3)c(-c3ccccc3)c2)cc1 | > 26 µM (inactive)
88 | O=C(O)c1ccc(S(=O)(=O)/N=C2\C=C(Nc3ccccc3F)C(=O)c3ccccc32)cc1 | > 26 µM (inactive)
89 | O=C(OCn1ncc(Cl)c(Cl)c1=O)c1ccccc1Cl | > 26 µM (inactive)
90 | COc1ccc(C)cc1Nc1n[n+](-c2ccccc2)c(-c2ccc(OC)c(OC)c2OC)s1 | > 26 µM (inactive)
91 | Cc1cc(-n2c(SCC(=O)Nc3ccc(F)c(F)c3)nc3n[nH]c(C)c3c2=N)ccc1Cl | > 26 µM (inactive)
92 | Cc1nc2ccccc2nc1N/N=C/c1ccc(O)cc1O | > 26 µM (inactive)
93 | O=C(Nc1ccc(OCC(=O)N2CCC(Cc3ccccc3)CC2)cc1)c1ccco1 | > 26 µM (inactive)
94 | CCN(CC)c1ccc(/C=N/NC(=O)Cc2cccs2)c(O)c1 | > 26 µM (inactive)
95 | C/C(=N\NC(=O)c1cc(C2CC2)nc2ccccc12)c1ccc(O)cc1O | > 26 µM (inactive)
